From patent publication US9766236B2, “Taste receptor internalization assay” (PepsiCo, Inc., priority 2013, dated 2017)
Residues, ends and D or L forms follow the SMILES beside them.

What was measured:
GLUT4 = biological target: T1, GLUT4 (Homo sapiens, UniProt P14672); test: High-content imaging ring assay for GLUT4 internalization in NCI-H716 cells; type: cell-based; conditions: endogenous GLUT4, FIG. 4B
T1 construct: we tested internalization of endogenous GLUT4 in NCI-H716 cells; endogenous in cells; host or cells: NCI-H716 (ATCC CCL-251)
T1 sequence (P14672 1-509): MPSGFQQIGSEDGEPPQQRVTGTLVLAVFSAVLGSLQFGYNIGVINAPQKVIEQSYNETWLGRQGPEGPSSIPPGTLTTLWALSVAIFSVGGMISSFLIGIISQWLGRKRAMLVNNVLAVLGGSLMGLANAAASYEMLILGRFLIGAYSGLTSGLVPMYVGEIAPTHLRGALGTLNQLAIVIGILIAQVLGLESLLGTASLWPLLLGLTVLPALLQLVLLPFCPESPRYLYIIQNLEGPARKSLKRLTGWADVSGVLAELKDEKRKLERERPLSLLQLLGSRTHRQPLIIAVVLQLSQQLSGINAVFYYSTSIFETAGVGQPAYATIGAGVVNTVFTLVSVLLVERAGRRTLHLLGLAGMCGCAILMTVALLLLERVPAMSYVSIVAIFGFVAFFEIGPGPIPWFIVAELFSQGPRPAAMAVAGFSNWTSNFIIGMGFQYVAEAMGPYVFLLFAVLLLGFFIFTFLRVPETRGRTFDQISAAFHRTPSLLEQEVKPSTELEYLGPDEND
Source text: The internalization assay disclosed herein, also called a “ring assay,” detects localization of receptors using antibodies specific for the receptors. A first detectable label, specific for nucleic acid (e.g., DAPI, Hoechst 33342, DRAQ5, DRAQ7, DRAQ9), is used to label cell nuclei; this labeling provides information such as the number of cells in a field and differentiates between the nuclear (e.g., DAPI-positive) and cytoplasmic (e.g., DAPI-negative) compartments. Antibodies which specifically bind to a taste receptor are used in conjunction with secondary antibodies conjugated with a second detectable label which can be differentiated from the first detectable label (e.g., FITC, TRITC, Cy3, Cy5, Alexa 350, 488, 546, 555, 568, 594, 633, 647). Diffuse circle staining is observed in the absence of a stimulus (e.g., in the presence of buffer alone). In the presence of a stimulus, however, a “ring” of internalized receptors is visualized. In some embodiments, ring-positive cells are calculated by correlation coefficient for pixel values of the nuclear and receptor signals. The extent of internalization can be expressed as percentage (mean±SD) of cells showing a continuous ring staining from multiple (e.g., quadruplicate) data points.
To explore further the role of GLUT4 in signaling by artificial sweeteners, we tested internalization of endogenous GLUT4 in NCI-H716 cells.

T2R14 = biological target: T2, T2R14 (Homo sapiens, UniProt Q9NYV8); test: High-content imaging ring assay for T2R14 internalization in NCI-H716 cells; type: cell-based; conditions: compounds used at 10 mM, 37° C., immunofluorescence
T2 construct: These cells express the bitter receptors T2R1, T2R3, T2R4, T2R5, T2R7, T2R8, T2R9, T2R10, T2R13, T2R14; endogenous in cells; host or cells: NCI-H716 (ATCC CCL-251)
T2 sequence (Q9NYV8 1-317): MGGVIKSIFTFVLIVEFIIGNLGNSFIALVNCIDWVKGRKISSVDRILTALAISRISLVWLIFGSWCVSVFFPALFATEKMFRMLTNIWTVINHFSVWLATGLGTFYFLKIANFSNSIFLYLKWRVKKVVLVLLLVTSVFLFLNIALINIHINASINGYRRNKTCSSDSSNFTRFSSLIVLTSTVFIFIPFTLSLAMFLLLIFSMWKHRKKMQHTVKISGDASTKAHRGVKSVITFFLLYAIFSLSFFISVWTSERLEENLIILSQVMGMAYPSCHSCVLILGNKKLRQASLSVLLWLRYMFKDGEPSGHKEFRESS
Source text: The internalization assay disclosed herein, also called a “ring assay,” detects localization of receptors using antibodies specific for the receptors. A first detectable label, specific for nucleic acid (e.g., DAPI, Hoechst 33342, DRAQ5, DRAQ7, DRAQ9), is used to label cell nuclei; this labeling provides information such as the number of cells in a field and differentiates between the nuclear (e.g., DAPI-positive) and cytoplasmic (e.g., DAPI-negative) compartments. Antibodies which specifically bind to a taste receptor are used in conjunction with secondary antibodies conjugated with a second detectable label which can be differentiated from the first detectable label (e.g., FITC, TRITC, Cy3, Cy5, Alexa 350, 488, 546, 555, 568, 594, 633, 647). Diffuse circle staining is observed in the absence of a stimulus (e.g., in the presence of buffer alone). In the presence of a stimulus, however, a “ring” of internalized receptors is visualized. In some embodiments, ring-positive cells are calculated by correlation coefficient for pixel values of the nuclear and receptor signals. The extent of internalization can be expressed as percentage (mean±SD) of cells showing a continuous ring staining from multiple (e.g., quadruplicate) data points. NCI-H716 cell were grown in RPMI1690 media supplemented with 10% fetal bovine serum. Cells were seeded at density of 20,000 cells/well on PDL-coated 384-well plates. […] Alexa 488-conjugated antibodies and Hoechst 33342 were from Life Technology. 20,000 cells in PBS+10% FBS were plated on clear-bottom, PDL-coated, black-wall 384-well plates suitable for HCA imaging. For […] studies compounds were added to the cells. Stock solutions of all compounds were diluted in dimethyl sulfoxide (DMSO) and used at 10 mM. Control groups of cells also received DMSO (0.1%) in medium. NCI-H716 cells were stimulated with RebA (Purecircle) at 10 mM for indicating time points at 37° C. The cells were then fixed and processed for indirect immunofluorescence with antibodies against bitter receptor […]. All images were acquired with a 20× objective using ImageXpress Micro automated microscope. Hoechst 33342 staining is pseudo-colored blue and antibody specific staining is pseudo-colored green. […] The extent of internalization is expressed as the percentage (means±S.D.) of cells showing a continuous “Ring” staining from quadruplicate data points. Recycling of […] receptor correlates with decreased number of “Ring”-positive cells. Statistical analyses and graphs were made with Tibco Spotfire or GraphPad Prism.

SMILES	GLUT4 internalization ("Ring"-positive cells) (GLUT4)	T2R14 internalization ("Ring"-positive cells) (T2R14; FIG. 2)	T2R14 internalization ("Ring"-positive cells) (T2R14; FIG. 2, listed as Reb A)
CC1=CC(=O)[N-]S(=O)(=O)O1.[K+] [Ace-K]	GLUT4 internalization increased		
C=C1C[C@@]23CC[C@H]4[C@@](C)(CCC[C@@]4(C)C(=O)O[C@@H]4O[C@H](CO)[C@@H](O)[C@H](O)[C@H]4O)[C@@H]2CC[C@]1(O[C@@H]1O[C@H](CO)[C@@H](O)[C@H](O[C@@H]2O[C@H](CO)[C@@H](O)[C@H](O)[C@H]2O)[C@H]1O[C@@H]1O[C@H](CO)[C@@H](O)[C@H](O)[C@H]1O)C3 [RebA]		T2R14 internalization increases	induces T2R14 internalization
C=C1C[C@@]23CC[C@H]4[C@@](C)(CCC[C@@]4(C)C(=O)O[C@@H]4O[C@H](CO)[C@@H](O)[C@H](O)[C@H]4O)[C@@H]2CC[C@]1(O[C@@H]1O[C@H](CO)[C@@H](O)[C@H](O[C@@H]2O[C@H](CO)[C@@H](O)[C@H](O)[C@H]2O)[C@H]1O[C@@H]1O[C@@H](C)[C@H](O)[C@@H](O)[C@H]1O)C3 [RebC]		T2R14 internalization increases	
C=C1C[C@@]23CC[C@H]4[C@@](C)(CCC[C@@]4(C)C(=O)O[C@@H]4O[C@H](CO)[C@@H](O)[C@H](O)[C@H]4O[C@@H]4O[C@H](CO)[C@@H](O)[C@H](O)[C@H]4O)[C@@H]2CC[C@]1(O[C@@H]1O[C@H](CO)[C@@H](O)[C@H](O[C@@H]2O[C@H](CO)[C@@H](O)[C@H](O)[C@H]2O)[C@H]1O[C@@H]1O[C@H](CO)[C@@H](O)[C@H](O)[C@H]1O)C3 [RebD]		internalization was not observed	
COC(=O)[C@H](Cc1ccccc1)NC(=O)[C@@H](N)CC(=O)O [aspartame] (H-Asp-Phe-OMe)	GLUT4 internalization increased		
O=C1NS(=O)(=O)c2ccccc21 [saccharine]	GLUT4 internalization increased		
